From US8889704B2 (Array BioPharma Inc., priority 2011, dated 2014) come the findings set out here.

Where a name gives a salt, the structure may show the parent alone.

Holding throughout (assay type): biochemical
One test deals with PIM-1 (Homo sapiens, UniProt P11309). Kind of test: Enzyme PIM-1 Assay ([33P]ATP incorporation into PIM2tide, filter plate). The conditions noted are these: averaged IC50; 35 μM ATP, 7.5 μM PIM2tide, 0.25 nM PIM-1, 60 min at 22° C. The procedure, abridged:
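Radiometric assay: 0.25 nM PIM-1 phosphorylates 7.5 μM PIM2tide with 35 μM [γ-33P]ATP in 20 mM MOPS pH 7.4, 10 mM MgCl2, 1 mM DTT, 0.005% Tween-20, 60 min at 22 °C. Product captured on P81 filters, scintillation counted; 10-point 3-fold curve from 10 μM top, 2% DMSO, IC50 by 4-parameter logistic fit of POC.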

Test [1] has as its target T1, GST-tagged recombinant full-length human Pim-2 (Homo sapiens, UniProt Q9P1W9).
T1 construct: GST-tagged recombinant full-length human Pim-2; GST
The test is described as follows: PIM-2 Assay (as Example A). The conditions noted are these: averaged IC50; 4 μM ATP, 1.0 μM PIM2tide, 1.5 nM Pim-2. Summed up:
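Radiometric filter-binding assay: GST-tagged full-length human Pim-2 (1.5 nM) phosphorylates 1.0 μM PIM2tide with 4 μM [γ-33P]ATP for 60 min at 22 °C in pH 7.4 MOPS buffer, 2% DMSO. 10-point 3-fold dilutions from 10 μM top dose; IC50 from 4-parameter fit of percent of control.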

In another test the target is recombinant rat PIM-3 (Rattus norvegicus, UniProt O70444). The test is described as follows: PIM-3 Assay (as Example A). The conditions noted are these: averaged IC50; 30 μM ATP, 3.75 μM PIM2tide, 0.5 nM PIM-3. The procedure, abridged: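 Recombinant rat PIM-3 (0.5 nM) with 3.75 μM PIM2tide and 30 μM [γ-33P]ATP in MOPS pH 7.4 buffer, 60 min at 22 °C; labelled peptide captured on phosphocellulose filters and counted by scintillation. 10-point curve (top dose 10 μM, 2% DMSO); IC50 from 4-parameter fit of percent of control.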

PIM-1, sequence (P11309 whole entry, species assumed): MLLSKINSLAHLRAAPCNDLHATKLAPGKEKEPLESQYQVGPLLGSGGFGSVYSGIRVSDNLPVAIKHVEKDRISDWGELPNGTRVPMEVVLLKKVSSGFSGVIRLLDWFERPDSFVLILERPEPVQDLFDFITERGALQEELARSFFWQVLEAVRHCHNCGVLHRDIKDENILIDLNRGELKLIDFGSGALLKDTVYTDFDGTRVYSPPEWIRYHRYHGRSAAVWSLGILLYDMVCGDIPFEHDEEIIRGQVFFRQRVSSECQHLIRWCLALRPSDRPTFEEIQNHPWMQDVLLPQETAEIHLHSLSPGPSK
T1 sequence (Q9P1W9 whole entry): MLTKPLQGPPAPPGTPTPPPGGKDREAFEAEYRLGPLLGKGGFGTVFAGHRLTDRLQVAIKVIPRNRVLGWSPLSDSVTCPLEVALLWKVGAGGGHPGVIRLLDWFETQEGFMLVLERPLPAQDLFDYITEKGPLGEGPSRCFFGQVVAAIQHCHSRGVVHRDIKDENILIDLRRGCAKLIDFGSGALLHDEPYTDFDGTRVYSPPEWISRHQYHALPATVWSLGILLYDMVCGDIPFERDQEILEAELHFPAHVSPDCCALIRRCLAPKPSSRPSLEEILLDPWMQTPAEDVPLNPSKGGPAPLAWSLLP

For `N[C@H]1CCN([C@H](c2ccc3nnc(-c4ccc5cc(F)c(OC(F)F)cc5n4)n3c2)C(F)(F)F)C1` [Example 215, (S)-1-((R)-1-(3-(7-(difluoromethoxy)-6-fluoroquinolin-2-yl)-[1,2,4]triazolo[4,3-a]pyridin-6-yl)-2,2,2-trifluoroethyl)pyrrolidin-3-amine dihydrochloride], the half-maximal inhibitory concentration (IC50) (usually the concentration that inhibits the measured activity by half) at PIM-1 is 0.47 nM; in test [1] it was greater than 1000 nM; on recombinant rat PIM-3, 3.1 nM.

With `CC(C)Oc1cc(F)cc2ccc(-c3nnc4ccc([C@H](N5CC[C@H](N)C5)C(F)(F)F)cn34)nc12` [Example 135, (S)-1-((S)-2,2,2-trifluoro-1-(3-(6-fluoro-8-isopropoxyquinolin-2-yl)-[1,2,4]triazolo[4,3-a]pyridin-6-yl)ethyl)pyrrolidin-3-amine hydrochloride], the IC50 is 1.41 nM at PIM-1, 82 nM in test [1] and 3 nM at recombinant rat PIM-3.

On to `CC(C)Oc1cccc2ccc(-c3nnc4ccc([C@H](N5CCC(C)(O)C5)C(F)(F)F)cn34)nc12` (single isomer, unassigned; diastereomer 2) [Example 207], for which the IC50 at PIM-1 is 58 nM; in test [1] it was greater than 1000 nM; on recombinant rat PIM-3 it was 40 nM.

As for `CCOc1cc2nc(-c3nnc4ccc([C@@H](N5CC[C@@H](N)C5)C(F)(F)F)cn34)ccc2cc1F` [Example 282, (R)-1-((R)-1-(3-(7-ethoxy-6-fluoroquinolin-2-yl)-[1,2,4]triazolo[4,3-a]pyridin-6-yl)-2,2,2-trifluoroethyl)pyrrolidin-3-amine hydrochloride], the IC50 was 0.28 nM on PIM-1, 166 nM in test [1] and 0.8 nM on recombinant rat PIM-3.

In the case of `CC(C)C(=O)OCCOc1cc2nc(-c3nnc4ccc([C@@H](N5CC[C@H](N)C5)C(F)(F)F)cn34)ccc2cc1F` [Example 285, 2-(2-(6-((R)-1-((S)-3-aminopyrrolidin-1-yl)-2,2,2-trifluoroethyl)-[1,2,4]triazolo[4,3-a]pyridin-3-yl)-6-fluoroquinolin-7-yloxy)ethyl isobutyrate], the IC50 against PIM-1 was 0.57 nM; in test [1], greater than 1000 nM; on recombinant rat PIM-3, 8.6 nM.

As to `CCC(C)(C)C(=O)OCCOc1cc2nc(-c3nnc4ccc([C@@H](N5CC[C@H](N)C5)C(F)(F)F)cn34)ccc2cc1F` [Example 289, 2-(2-(6-((R)-1-((S)-3-aminopyrrolidin-1-yl)-2,2,2-trifluoroethyl)-[1,2,4]triazolo[4,3-a]pyridin-3-yl)-6-fluoroquinolin-7-yloxy)ethyl 2,2-dimethylbutanoate], the IC50 against PIM-1 is 0.38 nM; in test [1], 459 nM; at recombinant rat PIM-3, 1.6 nM.

With `N[C@H]1CCN(C(c2ccc3nnc(-c4ccc5ccc(C6CC6)cc5n4)n3c2)C(F)(F)F)C1` (stereo partly drawn) [Example 3, (3S)-1-(1-(3-(7-cyclopropylquinolin-2-yl)-[1,2,4]triazolo[4,3-a]pyridin-6-yl)-2,2,2-trifluoroethyl)pyrrolidin-3-amine dihydrochloride], the IC50 against PIM-1 came out at 0.13 nM; in test [1], 53 nM; at recombinant rat PIM-3 it was 0.3 nM.

For `CCOc1ccc2ccc(-c3nnc4ccc([C@@H](N5CCC6(CCCN6)C5)C(F)(F)F)cn34)nc2c1` (stereo partly drawn) [Example 257, 7-ethoxy-2-(6-((1R)-2,2,2-trifluoro-1-(1,7-diazaspiro[4.4]nonan-7-yl)ethyl)-[1,2,4]triazolo[4,3-a]pyridin-3-yl)quinoline dihydrochloride], the IC50 on PIM-1 worked out at 1.45 nM; in test [1], 724 nM; on recombinant rat PIM-3, 9 nM.

For `COCC(C)Oc1cccc2ccc(-c3nnc4ccc([C@@H](N5CC[C@H](N)C5)C(F)(F)F)cn34)nc12` (stereo partly drawn) [Example 118, (3S)-1-((1R)-2,2,2-trifluoro-1-(3-(8-(1-methoxypropan-2-yloxy)quinolin-2-yl)-[1,2,4]triazolo[4,3-a]pyridin-6-yl)ethyl)pyrrolidin-3-amine hydrochloride], the IC50 amounted to 0.11 nM against PIM-1, 72 nM in test [1] and 0.8 nM on recombinant rat PIM-3.

Take `CN[C@H]1CCN([C@H](c2ccc3nnc(-c4ccc5cccc(OCC6CC6)c5n4)n3c2)C(F)(F)F)C1` [Example 43, (S)-1-((R)-1-(3-(8-(cyclopropylmethoxy)quinolin-2-yl)-[1,2,4]triazolo[4,3-a]pyridin-6-yl)-2,2,2-trifluoroethyl)-N-methylpyrrolidin-3-amine dihydrochloride]: the IC50 was found to be 0.13 nM at PIM-1, 65 nM in test [1] and 1.5 nM on recombinant rat PIM-3.

In the case of `CC(C)(CO)c1cc(F)cc2ccc(-c3nnc4ccc([C@@H](N5CC[C@H](N)C5)C(F)(F)F)cn34)nc12` [Example 121, 2-(2-(6-((R)-1-((S)-3-aminopyrrolidin-1-yl)-2,2,2-trifluoroethyl)-[1,2,4]triazolo[4,3-a]pyridin-3-yl)-6-fluoroquinolin-8-yl)-2-methylpropan-1-ol dihydrochloride], the half-maximal inhibitory concentration (IC50) on PIM-1 worked out at 0.13 nM; in test [1], 8.7 nM; at recombinant rat PIM-3, 0.2 nM.

`Cn1cc(-c2ccc3ccc(-c4nnc5ccc([C@H](N6CCC(C)(O)C6)C(F)(F)F)cn45)nc3c2)cn1` (single isomer, unassigned; diastereomer 1) [Example 200]: the IC50 against PIM-1 is 1.86 nM; in test [1], 137 nM; on recombinant rat PIM-3, 3.4 nM.

On to `N[C@H]1CCN([C@H](c2ccc3nnc(-c4ccc5cc(F)c(OCC(F)(F)F)cc5n4)n3c2)C(F)(F)F)C1` [Example 226, (S)-1-((R)-2,2,2-trifluoro-1-(3-(6-fluoro-7-(2,2,2-trifluoroethoxy)quinolin-2-yl)-[1,2,4]triazolo[4,3-a]pyridin-6-yl)ethyl)pyrrolidin-3-amine dihydrochloride], for which the IC50 against PIM-1 was found to be 0.27 nM; in test [1] it was 235 nM; on recombinant rat PIM-3 it was 0.5 nM.

For the compound `Cc1cc(OC(C)C)c2nc(-c3nnc4ccc([C@@H](N5CC[C@H](N)C5)C(F)(F)F)cn34)ccc2c1` [Example 128, (S)-1-((R)-2,2,2-trifluoro-1-(3-(8-isopropoxy-6-methylquinolin-2-yl)-[1,2,4]triazolo[4,3-a]pyridin-6-yl)ethyl)pyrrolidin-3-amine hydrochloride], the IC50 on PIM-1 is 0.58 nM; in test [1], greater than 100 nM; on recombinant rat PIM-3, 0.7 nM.

Regarding `N[C@H]1CCN([C@H](c2ccc3nnc(-c4ccc5ccc(CCO)cc5n4)n3c2)C(F)(F)F)C1` [Example 265, 2-(2-(6-((R)-1-((S)-3-aminopyrrolidin-1-yl)-2,2,2-trifluoroethyl)-[1,2,4]triazolo[4,3-a]pyridin-3-yl)quinolin-7-yl)ethanol dihydrochloride], the results for the IC50 (against PIM-1; in test [1]; on recombinant rat PIM-3) were 0.53 nM, greater than 1000 nM and 1.3 nM, respectively.

`CO[C@H](C)COc1cc2nc(-c3nnc4ccc([C@H](N5CC[C@](C)(N)C5)C(F)(F)F)cn34)ccc2cc1F` [Example 324, (S)-3-methyl-1-((S)-2,2,2-trifluoro-1-(3-(6-fluoro-7-((R)-2-methoxypropoxy)quinolin-2-yl)-[1,2,4]triazolo[4,3-a]pyridin-6-yl)ethyl)pyrrolidin-3-amine di-hydrochloride]: the IC50 was 0.18 nM against PIM-1, 44.6 nM in test [1] and 0.21 nM on recombinant rat PIM-3.
